In publication PMC11123773, “Identification of New Substrates and Inhibitors of Human CYP2A7” (Molecules, 2024):
Changes are numbered by the printed parent chain.

Tests used:
CYP2A7-WT [1] = target: T1, CYP2A7-WT (Homo sapiens, UniProt P20853, D169E/H274R/R311C/V479G); assay: Diclofenac biotransformation with enzyme bags, LC-MS analysis of hydroxydiclofenac; type: biochemical; parameters: expressed in transfected cells; host or cells: Schizosaccharomyces pombe strain AA01 (pREP1-CYP2A7-WT in CAD62), permeabilized cells (enzyme bags); settings: by CYP2A7-WT; diclofenac 100 µM
T1 sequence (P20853 1-494 D169E/H274R/R311C/V479G): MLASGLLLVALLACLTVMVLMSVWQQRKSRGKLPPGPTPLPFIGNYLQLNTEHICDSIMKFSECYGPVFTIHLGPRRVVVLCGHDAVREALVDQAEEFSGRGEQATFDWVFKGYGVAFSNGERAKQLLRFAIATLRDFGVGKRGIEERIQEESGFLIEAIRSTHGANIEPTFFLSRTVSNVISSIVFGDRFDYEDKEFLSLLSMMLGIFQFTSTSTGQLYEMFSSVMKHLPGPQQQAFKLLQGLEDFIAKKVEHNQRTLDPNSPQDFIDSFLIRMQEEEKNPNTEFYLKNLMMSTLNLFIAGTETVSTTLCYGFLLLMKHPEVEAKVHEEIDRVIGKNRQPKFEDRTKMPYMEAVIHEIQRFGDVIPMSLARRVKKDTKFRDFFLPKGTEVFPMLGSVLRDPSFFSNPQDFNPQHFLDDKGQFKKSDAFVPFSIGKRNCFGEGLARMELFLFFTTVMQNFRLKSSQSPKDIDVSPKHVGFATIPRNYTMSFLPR
Method: (§1) This was performed as described previously with slight modifications. Briefly, fission yeast cells were cultured on EMM plates with 5 µM thiamine for 3 days at 30 °C. A single yeast colony was then transferred to a 10 mL liquid culture of EMM without thiamine and cultured at 30 °C and 230 rpm for 36 h. As the recombinant expression of the human enzymes is controlled by the strong endogenous nmt1 promoter, all subsequent cultures were cultured in the absence of thiamine to keep the promoter in an active state. For each activity assay, 5 × 10^7 cells (stationary growth phase) were transferred to 1.5 mL Eppendorf tubes (Axygen; Silicon Valley, USA), pelleted, and incubated in 1 mL of 0.3% Triton-X100 in Tris-KCl buffer (200 mM KCl, 100 mM Tris-HCl pH 7.8) at room temperature for 60 min at 150 rpm for permeabilization. After three washes with 1 mL NH4HCO3 buffer (50 mM, pH 7.8), cells were resuspended in phosphate buffer (pH 7.4) and then the substrate and the NADPH regeneration system were added to a total volume of 50 µL. The samples were incubated at 37 °C and 1000 rpm for 3 h. For LC-MS analysis, the reaction mixture was extracted with an equal amount of ethyl acetate by centrifugation, and the supernatants were stored at −20 °C until use.
(§2) Analytical procedures were performed on an Agilent HPLC/microTOF-Q II instrument equipped with a Kromasil 100-5-C18 (dimensions 4.6 × 250 mm). […]

CYP2A7*1 [2] = target: T2, CYP2A7*1 (Homo sapiens, UniProt P20853); assay: as above; type: biochemical; parameters: expressed in transfected cells; host or cells: Schizosaccharomyces pombe strain RAJ127 (pREP1-CYP2A7*1 in CAD62), permeabilized cells (enzyme bags); settings: by CYP2A7*1; diclofenac 100 µM
T2 sequence (P20853 1-494): T1 sequence (P20853 1-494 D169E/H274R/R311C/V479G) with E169D, R274H, C311R, G479V
Method: as §1, §2

CYP2A6*1 [3] = target: T3, CYP2A6*1 (Homo sapiens, UniProt P11509); assay: as above; type: biochemical; parameters: expressed in transfected cells; host or cells: Schizosaccharomyces pombe strain RAJ122 (pREP1-CYP2A6*1 in CAD62), permeabilized cells (enzyme bags); settings: by CYP2A6*1; diclofenac 100 µM
T3 sequence (P11509 1-494): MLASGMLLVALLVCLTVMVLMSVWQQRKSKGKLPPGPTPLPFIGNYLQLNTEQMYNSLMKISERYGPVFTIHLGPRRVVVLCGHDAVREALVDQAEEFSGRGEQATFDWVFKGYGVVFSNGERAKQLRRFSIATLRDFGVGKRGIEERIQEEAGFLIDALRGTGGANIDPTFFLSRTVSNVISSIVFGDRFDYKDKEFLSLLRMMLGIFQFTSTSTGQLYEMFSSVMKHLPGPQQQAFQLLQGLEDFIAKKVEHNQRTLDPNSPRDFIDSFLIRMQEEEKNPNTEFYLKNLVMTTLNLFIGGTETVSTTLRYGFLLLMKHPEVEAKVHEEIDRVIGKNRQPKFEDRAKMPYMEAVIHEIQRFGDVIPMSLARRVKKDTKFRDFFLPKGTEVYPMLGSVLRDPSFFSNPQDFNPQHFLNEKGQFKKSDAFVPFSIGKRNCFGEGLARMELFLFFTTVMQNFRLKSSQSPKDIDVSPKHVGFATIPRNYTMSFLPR
Method: as §1, §2

CYP2A7-WT [4] = target: T1, CYP2A7-WT; settings: by CYP2A7-WT; nicotine 250 µM
Method: as §1
(§3) An Agilent HPLC/microTOF-Q II instrument equipped with a LiChrospher 100 RP-18 column was used to carry out all analytical procedures. The mobile phase that we used was a mixture of water with 0.05% formic acid as phase A and 100% acetonitrile as B, run at a constant flow of 0.3 mL/min for 45 min. The gradient used was 0–20 min (80% A: 20% B to 80% B), 20–30 min (100% B), 30–35 min again (100% B), and 35–45 min (80% A: 20% B). We used positive electrospray ionization mode at a capillary voltage of 4.5 kV for mass spectrometry.

CYP2A7*1 [5] = target: T2, CYP2A7*1; settings: by CYP2A7*1; nicotine 250 µM
Method: as §1, §3

CYP2A6*1 [6] = target: T3, CYP2A6*1; settings: by CYP2A6*1; nicotine 250 µM
Method: as §1, §3

| SMILES | Metabolization of diclofenac (hydroxydiclofenac formation) (CYP2A7-WT [1]) | Metabolization of diclofenac (hydroxydiclofenac formation) (CYP2A7*1 [2]) | Metabolization of diclofenac (hydroxydiclofenac formation) (CYP2A6*1 [3]) | Metabolization of nicotine to the nicotine iminium ion (CYP2A7-WT [4]) | Metabolization of nicotine to the nicotine iminium ion (CYP2A7*1 [5]) | Metabolization of nicotine to the nicotine iminium ion (CYP2A6*1 [6]) |
| --- | --- | --- | --- | --- | --- | --- |
| O=C(O)Cc1ccccc1Nc1c(Cl)cccc1Cl [diclofenac] | produced a diclofenac metabolite that had the mass of hydroxydiclofenac | produced a diclofenac metabolite that had the mass of hydroxydiclofenac | produced a diclofenac metabolite that had the mass of hydroxydiclofenac | – | – | – |
| CN1CCC[C@H]1c1cccnc1 [nicotine] | – | – | – | no nicotine metabolite was found | no nicotine metabolite was found | confirmed the metabolization |
